Laboratory results as given in the NIST ThermoML archive (doi:10.1021/je0496645).

Conditions: 101.33 kPa, Liquid; for viscosity: Capillary tube (Ostwald / Ubbelohde) method; for mass density: Vibrating tube method

CCCCC(CC)COP(=O)(O)OCC(CC)CCCC (stereo not given) [bis(2-ethylhexyl) hydrogen phosphate]
Conditions | mass density [kg/m3] | viscosity [mPa·s]
303.15 K | 964 | 21.22
313.15 K | 957 | 13.32
323.15 K | 949.5 | 8.559
333.15 K | 942 | 5.83
343.15 K | 934.5 | 4.089
